Results reported in ChEMBL document CHEMBL4765470 (J Med Chem, 2021).
Starred links: 1 amine or outer side, 2 acyl side, 3 side chain; linkers in the order of their positions; H or OH if unused. Non-standard residues stand in square brackets, D forms with d. Residues, ends and D or L forms follow the SMILES beside them. *: point of attachment. Ala(thiazol-5-yl) = N[C@@H](Cc1cncs1)C(=O)O; γ4hPhe = O=C(CC[C@H](Cc1ccccc1)N[*:1])[*:2]; 1Nal = N[C@@H](Cc1cccc2ccccc12)C(=O)O; 2Nal = N[C@@H](Cc1ccc2ccccc2c1)C(=O)O; 2Thi = N[C@@H](Cc1cccs1)C(=O)O; Cha = N[C@@H](CC1CCCCC1)C(=O)O; Tle = CC(C)(C)[C@H](N)C(=O)O; Nle = CCCC[C@H](N)C(=O)O; Orn = NCCC[C@H](N)C(=O)O; Ac5c = NC1(C(=O)O)CCCC1; Dab = NCC[C@H](N)C(=O)O; Ac3c = NC1(C(=O)O)CC1; Bn = c1ccc(C*)cc1

Experiments:
[1] = target: T1, Apelin receptor (Homo sapiens, UniProt P35414); assay: Displacement of [125I] [NIe75, Tyr77]Pyr-apelin-13 from YFP-tagged human APJ receptor expressed in HEK293 cell membranes incubated for 1 hr by gamma counting based Cheng-Prusoff equation analysis
T1 sequence (P35414 whole entry): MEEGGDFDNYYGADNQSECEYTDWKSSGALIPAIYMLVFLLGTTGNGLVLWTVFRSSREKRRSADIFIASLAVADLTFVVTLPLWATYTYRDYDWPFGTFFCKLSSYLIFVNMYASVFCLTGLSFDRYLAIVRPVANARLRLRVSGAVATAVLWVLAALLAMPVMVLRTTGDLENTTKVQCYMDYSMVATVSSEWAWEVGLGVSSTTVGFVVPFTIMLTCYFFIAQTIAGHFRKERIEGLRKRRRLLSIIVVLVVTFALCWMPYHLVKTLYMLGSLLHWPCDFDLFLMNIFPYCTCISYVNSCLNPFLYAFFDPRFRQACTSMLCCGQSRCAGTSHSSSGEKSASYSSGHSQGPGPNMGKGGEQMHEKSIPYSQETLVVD

[2] = target: T1, Apelin receptor; assay: Agonist activity at human APJ receptor expressed in HEK293 cells co-expressing Galpha(i1)-RlucII(91) assessed as induction of dissociation of Galpha(i1) from G-beta-gamma subunits incubated for 5 mins by BRET assay; type: cell-based
[3] = target: T1, Apelin receptor; assay: Agonist activity at human APJ receptor expressed in HEK293T cells co-expressing PDZ-Rho-Gef-RLucll assessed as induction of Galpha12 effector (PDZ-RhoGEF) to the cell membrane incubated for 5 mins by BRET assay; type: functional, cell-based
[4] = target: T1, Apelin receptor; assay: Agonist activity at human APJ receptor expressed in HEK293 cells co-expressing Rlucll-beta-arrestin2 assessed as induction of beta-arrestin2 recruitment to APJ incubated for 30 mins by BRET assay; type: cell-based

Ki [1] [nM] | EC50 [2] [nM] | EC50 [3] [nM] | EC50 [4] [nM] | Compound
9.3 | 4 | 128 | 151 | CCCC[C@H](N)C(=O)N1CCC[C@H]1C(=O)N[C@@H](CC(C)C)C(=O)N[C@@H](Cc1cnc[nH]1)C(=O)N[C@@H](CO)C(=O)N[C@@H](CCCNC(=N)N)C(=O)N[C@H](C(=O)N1CCC[C@H]1C(=O)N[C@@H](CCc1ccccc1)C(=O)N1CCC[C@H]1C(=O)O)C(C)C
1.1 | 1.1 | 74 | 88 | CCCC[C@H](N)C(=O)N1CCC[C@H]1C(=O)N[C@@](C)(CC(C)C)C(=O)N[C@@H](Cc1cnc[nH]1)C(=O)N[C@@H](CO)C(=O)N[C@@H](CCCNC(=N)N)C(=O)N[C@H](C(=O)N1CCC[C@H]1C(=O)N[C@@H](Cc1ccccc1)C(=O)N1CCC[C@H]1C(=O)O)C(C)C
5.1 | 6.9 | 224 | 172 | CCCC[C@H](N)C(=O)N1CCC[C@H]1C(=O)N[C@@H](CC(C)C)C(=O)N[C@@H](Cc1cnc[nH]1)C(=O)N[C@@H](CO)C(=O)N[C@@H](CCCNC(=N)N)C(=O)N[C@H](C(=O)N1CCC[C@H]1C(=O)N[C@@H](Cc1ccccc1)C(=O)N1C2CCCCC2C[C@H]1C(=O)O)C(C)C (stereo not given in full)
16 | 5.8 | 141 | 370 | CCCC[C@H](N)C(=O)N1CCC[C@H]1C(=O)N[C@H](C(=O)N[C@@H](Cc1cnc[nH]1)C(=O)N[C@@H](CO)C(=O)N[C@@H](CCCNC(=N)N)C(=O)N[C@H](C(=O)N1CCC[C@H]1C(=O)N[C@@H](Cc1ccccc1)C(=O)N1CCC[C@H]1C(=O)O)C(C)C)[C@@H](C)CC (H-[Nle]PIHSRVPFP-OH)
18 | 14 | 314 | 533 | CCCC[C@H](N)C(=O)N1CCC[C@H]1C(=O)N[C@@H](CC(C)C)C(=O)N[C@@H](Cc1cnc[nH]1)C(=O)N[C@@H](CO)C(=O)N[C@@H](CCCNC(=N)N)C(=O)N[C@@H](Cc1ccccc1)C(=O)N1CCC[C@H]1C(=O)N[C@@H](Cc1ccccc1)C(=O)N1CCC[C@H]1C(=O)O (H-[Nle]PLHSRFPFP-OH)
8.9 | 5.8 | 198 | 175 | CCCC[C@H](N)C(=O)N1CCC[C@H]1C(=O)N[C@@H](CC(C)C)C(=O)N[C@@H](Cc1cnc[nH]1)C(=O)N[C@@H](CO)C(=O)N[C@@H](CCCNC(=N)N)C(=O)N[C@H](C(=O)N1CCC[C@H]1C(=O)N[C@H](CCC(=O)O)Cc1ccccc1)C(C)C (H-[Nle]PLHSRVP-γ4hPhe)
4 | 2.3 | 43 | 53 | CCCC[C@H](N)C(=O)N1CCC[C@H]1C(=O)N[C@@H](CC(C)C)C(=O)N[C@@H](Cc1cnc[nH]1)C(=O)N[C@@H](CO)C(=O)N[C@@H](CCCNC(=N)N)C(=O)N[C@H](C(=O)N1CCC[C@H]1C(=O)N[C@@H](Cc1ccccc1)C(=O)N[C@@H](Cc1ccccc1)C(=O)O)C(C)C (H-[Nle]PLHSRVPFF-OH)
20 | 4.6 | 525 | 149 | CCCC[C@H](N)C(=O)N1CCC[C@H]1C(=O)N[C@@H](CC(C)C)C(=O)N[C@@H](Cc1cnc[nH]1)C(=O)N[C@@H](CO)C(=O)N[C@@H](CCCNC(=N)N)C(=O)N[C@H](C(=O)N1CCC[C@H]1C(=O)N[C@@H](Cc1ccccc1)C(=O)N[C@@H](CC(C)C)C(=O)O)C(C)C (H-[Nle]PLHSRVPFL-OH)
19 | 19 | 1520 | 381 | CCCC[C@H](N)C(=O)N1CCC[C@H]1C(=O)N[C@@H](CC(C)C)C(=O)N[C@@H](Cc1cnc[nH]1)C(=O)N[C@@H](CO)C(=O)N[C@@H](CCCNC(=N)N)C(=O)N[C@H](C(=O)N1CCC[C@H]1C(=O)N[C@@H](Cc1ccccc1)C(=O)N[C@@H](Cc1ccc(OCc2ccccc2)cc1)C(=O)O)C(C)C (H-[Nle]PLHSRVPFY(Bn)-OH)
> 10000 |  |  |  | CCCC[C@H](N)C(=O)N1CCC[C@H]1C(=O)N[C@@H](CC(C)C)C(=O)N[C@@H](Cc1cnc[nH]1)C(=O)N[C@@H](CO)C(=O)N[C@@H](CCCNC(=N)N)C(=O)NC1(C(=O)N2CCC[C@H]2C(=O)N[C@@H](Cc2ccccc2)C(=O)N2CCC[C@H]2C(=O)O)CCCC1 (H-[Nle]PLHSR[Ac5c]PFP-OH)
152 |  |  |  | CCCC[C@H](N)C(=O)N1CCC[C@H]1C(=O)N[C@@H](CC(C)C)C(=O)N[C@@H](Cc1cnc[nH]1)C(=O)N[C@@H](CO)C(=O)N[C@@H](CCCNC(=N)N)C(=O)N[C@@H](CC1CCCCC1)C(=O)N1CCC[C@H]1C(=O)N[C@@H](Cc1ccccc1)C(=O)N1CCC[C@H]1C(=O)O (H-[Nle]PLHSR[Cha]PFP-OH)
174 |  |  |  | CCCC[C@H](N)C(=O)N1CCC[C@H]1C(=O)N[C@@H](CC(C)C)C(=O)N[C@@H](Cc1cnc[nH]1)C(=O)N[C@@H](CO)C(=O)N[C@@H](CCCNC(=N)N)C(=O)N[C@H](C(=O)N1CCC[C@H]1C(=O)N[C@@H](Cc1ccccc1)C(=O)N1CCC[C@H]1C(=O)O)C(C)(C)C (H-[Nle]PLHSR[Tle]PFP-OH)
62 |  |  |  | CCCC[C@H](N)C(=O)N1CCC[C@H]1C(=O)N[C@@H](CC(C)C)C(=O)N[C@@H](Cc1c[nH]c2ccccc12)C(=O)N[C@@H](CO)C(=O)N[C@@H](CCCNC(=N)N)C(=O)N[C@H](C(=O)N1CCC[C@H]1C(=O)N[C@@H](Cc1ccccc1)C(=O)N1CCC[C@H]1C(=O)O)C(C)C (H-[Nle]PLWSRVPFP-OH)
> 10000 |  |  |  | CCCC[C@H](N)C(=O)N1CCC[C@H]1C(=O)N[C@@H](CC(C)C)C(=O)N[C@@H](Cc1cccc2ccccc12)C(=O)N[C@@H](CO)C(=O)N[C@@H](CCCNC(=N)N)C(=O)N[C@H](C(=O)N1CCC[C@H]1C(=O)N[C@@H](Cc1ccccc1)C(=O)N1CCC[C@H]1C(=O)O)C(C)C (H-[Nle]PL[1Nal]SRVPFP-OH)
> 10000 |  |  |  | CCCC[C@H](N)C(=O)N1CCC[C@H]1C(=O)N[C@@H](CC(C)C)C(=O)N[C@@H](Cc1ccc2ccccc2c1)C(=O)N[C@@H](CO)C(=O)N[C@@H](CCCNC(=N)N)C(=O)N[C@H](C(=O)N1CCC[C@H]1C(=O)N[C@@H](Cc1ccccc1)C(=O)N1CCC[C@H]1C(=O)O)C(C)C (H-[Nle]PL[2Nal]SRVPFP-OH)
664 |  |  |  | CCCC[C@H](N)C(=O)N1CCC[C@H]1C(=O)N[C@@H](CC(C)C)C(=O)N[C@@H](Cc1cccs1)C(=O)N[C@@H](CO)C(=O)N[C@@H](CCCNC(=N)N)C(=O)N[C@H](C(=O)N1CCC[C@H]1C(=O)N[C@@H](Cc1ccccc1)C(=O)N1CCC[C@H]1C(=O)O)C(C)C (H-[Nle]PL[2Thi]SRVPFP-OH)
71 |  |  |  | CCCC[C@H](N)C(=O)N1CCC[C@H]1C(=O)N[C@@H](CC(C)C)C(=O)N[C@@H](Cc1cncs1)C(=O)N[C@@H](CO)C(=O)N[C@@H](CCCNC(=N)N)C(=O)N[C@H](C(=O)N1CCC[C@H]1C(=O)N[C@@H](Cc1ccccc1)C(=O)N1CCC[C@H]1C(=O)O)C(C)C (H-[Nle]PL[Ala(thiazol-5-yl)]SRVPFP-OH)
474 |  |  |  | CCCC[C@H](N)C(=O)N1CCC[C@H]1C(=O)N[C@@H](CC(C)C)C(=O)N[C@@H](CC1CCCCC1)C(=O)N[C@@H](CO)C(=O)N[C@@H](CCCNC(=N)N)C(=O)N[C@H](C(=O)N1CCC[C@H]1C(=O)N[C@@H](Cc1ccccc1)C(=O)N1CCC[C@H]1C(=O)O)C(C)C (H-[Nle]PL[Cha]SRVPFP-OH)
> 10000 |  |  |  | CCCC[C@H](N)C(=O)N1CCC[C@H]1C(=O)N[C@@H](CC(C)C)C(=O)N[C@@H](CCN)C(=O)N[C@@H](CO)C(=O)N[C@@H](CCCNC(=N)N)C(=O)N[C@H](C(=O)N1CCC[C@H]1C(=O)N[C@@H](Cc1ccccc1)C(=O)N1CCC[C@H]1C(=O)O)C(C)C (H-[Nle]PL[Dab]SRVPFP-OH)
> 10000 |  |  |  | CCCC[C@H](N)C(=O)N1CCC[C@H]1C(=O)N[C@@H](CC(C)C)C(=O)N[C@@H](CCCN)C(=O)N[C@@H](CO)C(=O)N[C@@H](CCCNC(=N)N)C(=O)N[C@H](C(=O)N1CCC[C@H]1C(=O)N[C@@H](Cc1ccccc1)C(=O)N1CCC[C@H]1C(=O)O)C(C)C (H-[Nle]PL[Orn]SRVPFP-OH)
54 |  |  |  | CCCC[C@H](N)C(=O)N1CCC[C@H]1C(=O)N[C@H](C(=O)N[C@@H](Cc1cnc[nH]1)C(=O)N[C@@H](CO)C(=O)N[C@@H](CCCNC(=N)N)C(=O)N[C@H](C(=O)N1CCC[C@H]1C(=O)N[C@@H](Cc1ccccc1)C(=O)N1CCC[C@H]1C(=O)O)C(C)C)C(C)C (H-[Nle]PVHSRVPFP-OH)
278 |  |  |  | CCCC[C@H](N)C(=O)N1CCC[C@H]1C(=O)NC1(C(=O)N[C@@H](Cc2cnc[nH]2)C(=O)N[C@@H](CO)C(=O)N[C@@H](CCCNC(=N)N)C(=O)N[C@H](C(=O)N2CCC[C@H]2C(=O)N[C@@H](Cc2ccccc2)C(=O)N2CCC[C@H]2C(=O)O)C(C)C)CC1 (H-[Nle]P[Ac3c]HSRVPFP-OH)
> 10000 |  |  |  | H-HSRVPFP-OH
